{"source": "patent US12384751B2", "about": "“Allosteric activators of the ALPHA1A-adrenergic receptor” (The Cleveland Clinic Foundation, priority 2019, dated 2025)", "key": {"[1]": {"experiment": "Blood pressure in APP (London Mutation) AD mice and WT controls", "assay_type": "in vivo, mouse", "settings": "40 mg/kg/bw daily"}, "[2]": {"test_system": "3×TG Alzheimer's Disease (AD) mouse model", "experiment": "Tone-induced fear conditioning in 3×TG AD mice", "assay_type": "in vivo", "description": "AD mice were first randomized and sorted into control or treatment groups. […] 14 AD mice from each treatment group received Compound 3 in the drinking water (2.611 mg/kg/bw) to deliver a daily dose near the peak potentiation of the cAMP response in the brain at 10^−8M based upon the PAM assay and pharmacokinetics. This was achieved by adding Compound 3 to the drinking water at 32 uM, assuming the mice drink 6 ml/day, with only 10% of bioavailable drug reaching the brain. The drug was administered in the drinking water for 10 months, starting at age 2 months, then subjected to either different cognitive behavioral tests or electrophysiology at age 12 months to maximize the manifestations of AD symptoms in these mice. Mice are maintained on the drug for the duration of the studies and blinded to the operator."}, "[3]": {"experiment": "Pharmacokinetics in mice", "assay_type": "in vivo, mouse", "settings": "as determined by PK", "description": "Pharmacokinetics: Mice are dosed for each identified candidate compound via oral gavage and accessed for a three-arm PK study in C57BL/6 mice at 0, 15 min, 30 min, 1 hr, 3 hr, 6 hr, 12 hr, 24 hr, and 48 hrs. Three groups of […] (N=3 per time point) are administered a PO dose of the identified compound of interest and following completion of the PK study, terminal blood plasma samples and brain tissue samples are collected at the time points to determine in vivo BBB penetrance. Parameters tested can include absorption, bioavailability, volume distribution, metabolism, Cmax, tmax, concentration, elimination rate and half-life, and clearance."}, "[4]": {"target": "T1, α1A-AR (Homo sapiens, UniProt P35348)", "T1 sequence (P35348 1-466)": "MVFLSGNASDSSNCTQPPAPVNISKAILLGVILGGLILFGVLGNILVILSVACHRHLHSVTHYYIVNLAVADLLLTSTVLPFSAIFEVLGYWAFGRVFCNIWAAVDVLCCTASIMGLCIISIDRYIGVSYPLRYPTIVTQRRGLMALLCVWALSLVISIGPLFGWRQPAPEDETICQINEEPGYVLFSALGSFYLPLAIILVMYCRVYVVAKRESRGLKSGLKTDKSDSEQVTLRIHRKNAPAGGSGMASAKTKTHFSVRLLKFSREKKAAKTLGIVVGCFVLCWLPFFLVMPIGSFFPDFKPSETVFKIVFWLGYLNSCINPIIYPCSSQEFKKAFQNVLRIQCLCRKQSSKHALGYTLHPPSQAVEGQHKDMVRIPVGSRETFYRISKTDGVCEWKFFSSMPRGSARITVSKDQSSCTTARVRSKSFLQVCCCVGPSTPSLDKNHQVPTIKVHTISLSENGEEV", "experiment": "Total inositol phosphate assay at α1A-AR", "assay_type": "cell-based", "design": "expressed in transfected cells; host or cells: Rat-1 fibroblast cells", "description": "Total Inositol Phosphate assay: Cells expressing a single α1-adrenergic receptor subtypes are washed and re-plated into 6-well plates containing DMEM media at approximately 5×10^5 cells/well. Cells are allowed to rest till the next day in a CO2 incubator at 37° C. The cells are washed twice with DMEM (no serum), then 2 ml of DMEM is added to each well. 2 ul of ^3H-inositol (at 1 uCi/mL, Perkin-Elmer NET 114 005MC) and 10 mM LiCl is added to each well. The cells are incubated for 1 hour at 37° C. in a CO2 incubator. […] The cells are incubated again for 1 hour at 37° C. in a CO2 incubator. The media is aspirated and 1 mL of ice-cold 0.4M perchloric acid is added. The cells are scraped, transferred to a vial, then 1 mL 0.72M KOH/0.6M KHCO3 is added, the tube vortexed and the contents centrifuged at 2000 rpm for 10 mins. The supernatant is removed and applied to BioRad polyprep columns packed with 1 mL of AG1-X8 resin (BioRad AG1-X8 resin 100-200 mesh #140-1444) in 0.1M formic acid in a holding tray which is over a plastic catch tray. The supernatant is allowed to naturally drip through the column then washed with 8 ml of 0.1M formic acid (2 ml at a time). The columns are transferred via the holding tray to a box of 20 ml scintillation vials so that the columns drip directly into the vials. Total inositol phosphates are eluted off the column with 2 ml of 0.1M formic acid/1M ammonium formate. The columns are eluted a second time into a new scintillation vial with another 2 ml of 0.1M formic acid/1M ammonium formate. 18 ml of Ecoscint A is added to each scintillation vial and vortexed. The vials are allowed to dark adapt overnight at room temperature to reduce autofluorescence. The vials are counted in a scintillation counter on the tritium channel and the cpms from the first and second fractions eluted off the columns are added together."}}, "note": "“Also recorded” adds a separate entry of the source.", "data": [{"smiles": "CC(C)Cc1c(OCC2=NCCN2)cccc1N(C)S(C)(=O)=O", "note": "[Compound 3, N-[3-(4,5-Dihydro-1H-imidazol-2-ylmethoxy)-2-isobutyl-phenyl]-N-methyl-methanesulfonamide]", "values": [{"measurement": "blood pressure, treated vs placebo", "setting": "[1]", "result": "no changes in blood pressure"}, {"measurement": "velocity after tone (freezing)", "setting": "[2]; female AD mice", "result": "slower movement speed"}, {"measurement": "active time after tone (freezing)", "setting": "[2]; male AD mice", "result": "less active time"}, {"measurement": "CMax time point", "setting": "[3]", "result": "approx. 3 hr"}, {"measurement": "effect on epinephrine-mediated inositol phosphate response at the α1A-AR", "setting": "[4]", "result": "no effect"}, {"measurement": "effect on norepinephrine-mediated inositol phosphate response at the α1A-AR", "setting": "[4]", "result": "does not have any effect; also recorded: no effect"}, {"measurement": "stimulation of inositol phosphate / agonist activity by the compound by itself", "setting": "[4]; compound alone", "result": "cannot stimulate"}]}]}
